Measurements: the Kinase Knowledgebase extract (Sharma et al. 2016)

Biological target: PIK3CG (human) (UniProt P48736)
Assay: Assessment of PIK3CG Kinase Activity

Chain of PIK3CG (human) (P48736 whole entry, looked up): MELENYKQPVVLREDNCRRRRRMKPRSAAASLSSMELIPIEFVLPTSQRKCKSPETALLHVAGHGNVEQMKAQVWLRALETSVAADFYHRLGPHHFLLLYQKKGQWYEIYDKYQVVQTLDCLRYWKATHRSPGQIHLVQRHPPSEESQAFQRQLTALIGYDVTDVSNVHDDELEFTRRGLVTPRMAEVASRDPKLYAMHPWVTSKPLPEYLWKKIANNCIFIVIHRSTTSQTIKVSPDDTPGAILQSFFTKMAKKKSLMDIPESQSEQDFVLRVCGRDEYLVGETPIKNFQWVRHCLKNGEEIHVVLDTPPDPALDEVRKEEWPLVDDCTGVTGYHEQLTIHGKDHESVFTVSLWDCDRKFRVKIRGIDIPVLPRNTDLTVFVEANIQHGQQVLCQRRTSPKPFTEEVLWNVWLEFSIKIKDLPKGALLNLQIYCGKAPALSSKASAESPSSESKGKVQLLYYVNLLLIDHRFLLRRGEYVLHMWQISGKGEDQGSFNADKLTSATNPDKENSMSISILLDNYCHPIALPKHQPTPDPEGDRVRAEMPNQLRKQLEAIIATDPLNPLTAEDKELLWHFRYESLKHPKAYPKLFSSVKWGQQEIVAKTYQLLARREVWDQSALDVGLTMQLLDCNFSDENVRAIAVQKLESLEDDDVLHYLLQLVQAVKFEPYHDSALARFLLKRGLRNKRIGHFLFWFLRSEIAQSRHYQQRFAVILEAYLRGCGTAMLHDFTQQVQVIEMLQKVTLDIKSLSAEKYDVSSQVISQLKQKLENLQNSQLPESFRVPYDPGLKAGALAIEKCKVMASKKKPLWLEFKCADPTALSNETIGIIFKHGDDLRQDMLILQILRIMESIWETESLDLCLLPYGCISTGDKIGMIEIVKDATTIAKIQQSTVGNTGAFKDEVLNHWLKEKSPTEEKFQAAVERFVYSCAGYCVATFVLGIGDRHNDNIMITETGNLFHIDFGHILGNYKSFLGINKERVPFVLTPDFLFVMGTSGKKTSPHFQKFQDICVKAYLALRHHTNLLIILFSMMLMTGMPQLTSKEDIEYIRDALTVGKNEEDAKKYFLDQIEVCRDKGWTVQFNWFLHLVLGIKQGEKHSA

IC50, < 800 nM:
O=C(NCC1CCCN(c2ncccn2)C1)Nc1nc2c(s1)-c1nc(-c3ccccc3Cl)ncc1CC2 (stereo not given)
CC(C)NC(=O)Nc1nc2c(s1)-c1nc(-c3ccccc3Cl)ncc1CC2
O=C(Nc1nc2c(s1)-c1nc(-c3ccccc3Cl)ncc1CC2)Nc1ccccc1CN1CCNC1=O
CC(C)(C)CC(=O)N[C@H]1CCN(C(=O)Nc2nc3c(s2)-c2nc(-c4ccccc4Cl)ncc2CC3)C1
CN(C)C(=O)N[C@@H]1CCN(C(=O)Nc2nc3c(s2)-c2nc(-c4ccccc4Cl)ncc2CC3)C1
O=C(NCc1cccc(NC(=O)N2CCOCC2)c1)Nc1nc2c(s1)-c1nc(-c3ccccc3Cl)ncc1CC2
COc1cccc(CCNC(=O)Nc2nc3c(s2)-c2nc(-c4ccccc4Cl)ncc2CC3)c1OC
O=C(NC[C@@H]1CCCN1C(=O)OCc1ccccc1)Nc1nc2c(s1)-c1nc(-c3ccccc3Cl)ncc1CC2
COCCN(C)C(=O)N[C@H]1CCN(C(=O)Nc2nc3c(s2)-c2nc(-c4ccccc4Cl)ncc2CC3)C1
CC(=O)NCC1CCCN(C(=O)Nc2nc3c(s2)-c2nc(-c4ccccc4Cl)ncc2CC3)C1 (stereo not given)
CC(=O)N[C@H]1CCN(C(=O)Nc2nc3c(s2)-c2nc(-c4ccccc4Cl)ncc2CC3)C1
CNC(=O)Nc1nc2c(s1)-c1nc(-c3ccccc3Br)ncc1CC2
CCc1cnc(CCNC(=O)Nc2nc3c(s2)-c2nc(-c4ccccc4Br)ncc2CC3)o1
O=C(NCc1cc(C2CC2)n[nH]1)Nc1nc2c(s1)-c1nc(-c3cccc(F)c3Cl)ncc1CC2
CN(C)c1cccc(CNC(=O)Nc2nc3c(s2)-c2nc(-c4ccccc4Cl)ncc2CC3)c1
O=C(NCc1ccccc1N1CCCCC1)Nc1nc2c(s1)-c1nc(-c3ccccc3Cl)ncc1CC2
O=C(NCc1cccc(N2CCCCC2)c1)Nc1nc2c(s1)-c1nc(-c3ccccc3Cl)ncc1CC2
CN1CCN(Cc2ccc(NC(=O)Nc3nc4c(s3)-c3nc(-c5ccccc5Cl)ncc3CC4)cc2)CC1
COCCC(=O)N[C@H]1CCN(C(=O)Nc2nc3c(s2)-c2nc(-c4ccccc4Cl)ncc2CC3)C1
CC(C)(C)OC(=O)NCC1CCCN1C(=O)Nc1nc2c(s1)-c1nc(-c3ccccc3Cl)ncc1CC2 (stereo not given)
CCOC(=O)CCNC(=O)Nc1nc2c(s1)-c1nc(-c3ccccc3Cl)ncc1CC2
CN(C)Cc1cccc(CNC(=O)Nc2nc3c(s2)-c2nc(-c4ccccc4Cl)ncc2CC3)c1
CC(C)NC(=O)c1cccc(CNC(=O)Nc2nc3c(s2)-c2nc(-c4ccccc4Cl)ncc2CC3)c1
CC(C)CCNC(=O)CCNC(=O)Nc1nc2c(s1)-c1nc(-c3ccccc3Cl)ncc1CC2
CN(C)S(=O)(=O)N[C@H]1CCN(C(=O)Nc2nc3c(s2)-c2nc(-c4ccccc4Cl)ncc2CC3)C1
CNC(=O)c1cccc(CNC(=O)Nc2nc3c(s2)-c2nc(-c4ccccc4Cl)ncc2CC3)c1
O=C(Nc1nc2c(s1)-c1nc(-c3ccccc3Cl)ncc1CC2)N1CC[C@H](NC(=O)C(F)(F)F)C1
CCNC(=O)Nc1nc2c(s1)-c1nc(-c3cccc(F)c3Cl)ncc1CC2
O=C(NCc1cccc(OC(F)(F)F)c1)Nc1nc2c(s1)-c1nc(-c3ccccc3Cl)ncc1CC2
O=C(NCCc1ccccn1)Nc1nc2c(s1)-c1nc(-c3ccccc3Cl)ncc1CC2
O=C(NCc1ccn[nH]1)Nc1nc2c(s1)-c1nc(-c3ccccc3Cl)ncc1CC2
O=C(Nc1nc2c(s1)-c1nc(-c3ccccc3Cl)ncc1CC2)N1CCC(NC(=O)C(F)(F)F)C1 (stereo not given)
CC(C)CNC(=O)c1cccc(CNC(=O)Nc2nc3c(s2)-c2nc(-c4ccccc4Cl)ncc2CC3)c1
O=C(Nc1nc2c(s1)-c1nc(-c3ccccc3Cl)ncc1CC2)N1CCC2(CC1)C(=O)NCN2c1ccccc1
O=C(NCc1cccc(N2CCOCC2)c1)Nc1nc2c(s1)-c1nc(-c3ccccc3Cl)ncc1CC2
O=C(NCCN1CCOCC1)Nc1nc2c(s1)-c1nc(-c3ccccc3Cl)ncc1CC2
CCc1cnc(CCNC(=O)Nc2nc3c(s2)-c2nc(-c4ccccc4Cl)ncc2CC3)o1
CCc1csc(CCNC(=O)Nc2nc3c(s2)-c2nc(-c4ccccc4F)ncc2CC3)n1
O=C(NCC1CC1)Nc1nc2c(s1)-c1nc(-c3ccccc3Cl)ncc1CC2
CN(C)C(=O)Nc1nc2c(s1)-c1nc(-c3ccccc3Cl)ncc1CC2
O=C(NCc1cccc(C(F)(F)F)c1)Nc1nc2c(s1)-c1nc(-c3ccccc3Cl)ncc1CC2
O=C(Nc1nc2c(s1)-c1nc(-c3ccccc3Cl)ncc1CC2)NC1CCC1
O=C(Nc1nc2c(s1)-c1nc(-c3cccc(F)c3Cl)ncc1CC2)NC1CC1
CC(C)C(=O)N[C@@H]1CCN(C(=O)Nc2nc3c(s2)-c2nc(-c4ccccc4Cl)ncc2CC3)C1
N#Cc1ccc(CNC(=O)Nc2nc3c(s2)-c2nc(-c4ccccc4Cl)ncc2CC3)s1
O=C(O)[C@H]1[C@H](c2ccccc2)CCN1C(=O)Nc1nc2c(s1)-c1nc(-c3ccccc3Cl)ncc1CC2
CC(C)c1cnc(CCNC(=O)Nc2nc3c(s2)-c2nc(-c4ccccc4Br)ncc2CC3)o1
O=C(NCc1cc(C2CC2)n[nH]1)Nc1nc2c(s1)-c1nc(-c3ccccc3Br)ncc1CC2
O=C(Nc1nc2c(s1)-c1nc(-c3ccccc3Cl)ncc1CC2)N1CCC(N2Cc3ccccc3NC2=O)C1 (stereo not given)
CCn1cc(CNC(=O)Nc2nc3c(s2)-c2nc(-c4ccccc4Cl)ncc2CC3)cn1
NC(=O)Nc1nc2c(s1)-c1nc(-c3ccccc3Br)ncc1CC2
O=C(NCc1ccco1)Nc1nc2c(s1)-c1nc(-c3ccccc3Cl)ncc1CC2
Cn1ccnc1CNC(=O)Nc1nc2c(s1)-c1nc(-c3ccccc3Cl)ncc1CC2
COC(=O)N[C@@H]1CCN(C(=O)Nc2nc3c(s2)-c2nc(-c4ccccc4Cl)ncc2CC3)C1
CS(=O)(=O)N[C@H]1CCN(C(=O)Nc2nc3c(s2)-c2nc(-c4ccccc4Cl)ncc2CC3)C1
O=C(NCc1ccc2c(c1)OCO2)Nc1nc2c(s1)-c1nc(-c3ccccc3Cl)ncc1CC2
O=C(NCc1cc(C2CC2)n[nH]1)Nc1nc2c(s1)-c1nc(-c3ccccc3Cl)ncc1CC2
CS(=O)(=O)c1cccc(CNC(=O)Nc2nc3c(s2)-c2nc(-c4ccccc4Cl)ncc2CC3)c1
O=C(NCc1ccccc1-n1cccn1)Nc1nc2c(s1)-c1nc(-c3ccccc3Cl)ncc1CC2
Cn1cc(CCNC(=O)Nc2nc3c(s2)-c2nc(-c4ccccc4Cl)ncc2CC3)cn1
O=C(NCc1cccc(N2CCOC2=O)c1)Nc1nc2c(s1)-c1nc(-c3ccccc3Cl)ncc1CC2
CC(C)(C)OC(=O)N1CCC[C@@H]1CNC(=O)Nc1nc2c(s1)-c1nc(-c3ccccc3Cl)ncc1CC2
CC(C)(C)CC(=O)N[C@@H]1CCN(C(=O)Nc2nc3c(s2)-c2nc(-c4ccccc4Cl)ncc2CC3)C1
Cn1cc(CNC(=O)Nc2nc3c(s2)-c2nc(-c4ccccc4C(F)(F)F)ncc2CC3)cn1
COCCN(C)C(=O)Nc1nc2c(s1)-c1nc(-c3ccccc3Cl)ncc1CC2
O=C(CCNC(=O)Nc1nc2c(s1)-c1nc(-c3ccccc3Cl)ncc1CC2)NC1CCCC1
CS(=O)(=O)N[C@@H]1CCN(C(=O)Nc2nc3c(s2)-c2nc(-c4ccccc4Cl)ncc2CC3)C1
O=C(N[C@H]1CCN(C(=O)Nc2nc3c(s2)-c2nc(-c4ccccc4Cl)ncc2CC3)C1)C1CC1
O=C(NCCN1CCNC1=O)Nc1nc2c(s1)-c1nc(-c3ccccc3Cl)ncc1CC2
O=C1CCC(NC(=O)Nc2nc3c(s2)-c2nc(-c4ccccc4Cl)ncc2CC3)C(c2ccccc2)N1 (stereo not given)
CC(C)(C)c1ncc2c(n1)-c1sc(NC(=O)NCc3cccc(N4CCNC4=O)c3)nc1CC2
CC(C)(C)OC(=O)N[C@H]1CC[C@H](CNC(=O)Nc2nc3c(s2)-c2nc(-c4ccccc4Cl)ncc2CC3)CC1
CN(C)C(=O)Nc1nc2c(s1)-c1nc(-c3ccccc3C(F)(F)F)ncc1CC2
CC(C)c1cccc(CNC(=O)Nc2nc3c(s2)-c2nc(-c4ccccc4Cl)ncc2CC3)c1
CC(C)c1cnc(CCNC(=O)Nc2nc3c(s2)-c2nc(-c4ccccc4Cl)ncc2CC3)o1
CC(C)(C)c1cc(CNC(=O)Nc2nc3c(s2)-c2nc(-c4ccccc4Cl)ncc2CC3)[nH]n1
O=C(NCCC(=O)N1CCOCC1)Nc1nc2c(s1)-c1nc(-c3ccccc3Cl)ncc1CC2
O=C(NCc1cccc(NC(=O)C2CC2)c1)Nc1nc2c(s1)-c1nc(-c3ccccc3Cl)ncc1CC2
CN(C)C(=O)N[C@H]1CCN(C(=O)Nc2nc3c(s2)-c2nc(-c4ccccc4Cl)ncc2CC3)C1
CCc1nnc(CCNC(=O)Nc2nc3c(s2)-c2nc(-c4ccccc4F)ncc2CC3)o1
O=C(Nc1nc2c(s1)-c1nc(-c3ccccc3Cl)ncc1CC2)NC1CCC(N2CCNC2=O)CC1 (stereo not given)
O=C(NCc1ccccc1)Nc1nc2c(s1)-c1nc(-c3ccccc3Cl)ncc1CC2
O=C(NCCc1cccnc1)Nc1nc2c(s1)-c1nc(-c3ccccc3Cl)ncc1CC2
O=C(Nc1nc2c(s1)-c1nc(-c3ccccc3Cl)ncc1CC2)N1CC[C@H](NS(=O)(=O)N2CCCC2)C1
O=C1Cc2ccccc2CN1CC1CCN(C(=O)Nc2nc3c(s2)-c2nc(-c4ccccc4Cl)ncc2CC3)C1 (stereo not given)
CN1CCN(Cc2cccc(NC(=O)Nc3nc4c(s3)-c3nc(-c5ccccc5Cl)ncc3CC4)c2)CC1
CCc1nnc(CCNC(=O)Nc2nc3c(s2)-c2nc(-c4ccccc4C(F)(F)F)ncc2CC3)o1
CC(C)N(C)C(=O)Nc1cccc(CNC(=O)Nc2nc3c(s2)-c2nc(-c4ccccc4Cl)ncc2CC3)c1
CC(C)CCNC(=O)Nc1nc2c(s1)-c1nc(-c3ccccc3Cl)ncc1CC2
O=C(Nc1nc2c(s1)-c1nc(-c3ccccc3Cl)ncc1CC2)N1CCCC(c2nc3ccccc3[nH]2)C1 (stereo not given)
